Laboratory results: PubChem BioAssay AID256 (DTP/NCI, 2004)
Values joined by “and” are separate entries in the source; they are usually repeats but may differ in a detail not shown here. Equal entries are not always repeated. Toxic doses and inconclusive results are not listed. Non-standard residues stand in square brackets, D forms with d. Residues, ends and D or L forms follow the SMILES beside them. ξ: configuration not given here. ξF = NC(Cc1ccccc1)C(=O)O

Tested on: CD2F1 mice, L1210 leukemia ip, survival T/C
Experiment: NCI In Vivo Anticancer Drug Screen. Data for tumor model L1210 Leukemia (intraperitoneal) in CD2F1 (CDF1) mice
Conditions: higher = longer survival
How it was run: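 Ratio T/C, where T is the treated-group value and C the vehicle-dosed control value, from mice implanted with a transplantable tumor.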

[1] = endpoint: mean survival time, dose: 100.0 mg/kg/injection, schedule: Q01DX009 (ip), vehicle: saline with Tween-80
[2] = endpoint: mean survival time, dose: 200.0 mg/kg/injection, schedule: Q01DX009 (ip), vehicle: saline with Tween-80
[3] = endpoint: mean survival time, dose: 100.0 mg/kg/injection, schedule: Q01DX001 (ip), vehicle: saline with Tween-80
[4] = endpoint: mean survival time, dose: 200.0 mg/kg/injection, schedule: Q01DX001 (ip), vehicle: saline with Tween-80
[5] = endpoint: mean survival time, dose: 400.0 mg/kg/injection, schedule: Q01DX001 (ip), vehicle: saline with Tween-80
[6] = endpoint: mean survival time, dose: 100.0 mg/kg/injection, schedule: Q04DX003 (ip), vehicle: saline with Tween-80
[7] = endpoint: mean survival time, dose: 200.0 mg/kg/injection, schedule: Q04DX003 (ip), vehicle: saline with Tween-80
[8] = endpoint: mean survival time, dose: 400.0 mg/kg/injection, schedule: Q04DX003 (ip), vehicle: saline with Tween-80
[9] = endpoint: median survival time, dose: 25.0 mg/kg/injection, schedule: Q01DX009 (ip), vehicle: saline with Tween-80
[10] = endpoint: median survival time, dose: 50.0 mg/kg/injection, schedule: Q01DX009 (ip), vehicle: saline with Tween-80
[11] = endpoint: median survival time, dose: 100.0 mg/kg/injection, schedule: Q01DX009 (ip), vehicle: saline with Tween-80
[12] = endpoint: median survival time, dose: 200.0 mg/kg/injection, schedule: Q01DX009 (ip), vehicle: saline with Tween-80
[13] = endpoint: mean survival time, dose: 100.0 mg/kg/injection, schedule: Q01DX001 (ip), vehicle: saline
[14] = endpoint: mean survival time, dose: 200.0 mg/kg/injection, schedule: Q01DX001 (ip), vehicle: saline
[15] = endpoint: mean survival time, dose: 400.0 mg/kg/injection, schedule: Q01DX001 (ip), vehicle: saline

C1OC1CN1CCN(CC2CO2)CC1 (configuration not stated) was tested, and the T/C (endpoint: mean survival time, dose: 2.0 mg/kg/injection, schedule: Q03HX008 (ip), vehicle: saline) was 105 % of control, the T/C (endpoint: mean survival time, dose: 2.0 mg/kg/injection, schedule: Q03HX016 (ip), vehicle: saline) was 98 % of control and the T/C (endpoint: mean survival time, dose: 2.0 mg/kg/injection, schedule: Q03HX024 (ip), vehicle: saline) was 108 % of control. For the same compound, the T/C (endpoint: mean survival time, dose: 4.0 mg/kg/injection, schedule: Q03HX008 (ip), vehicle: saline) was 108 % of control, the T/C (endpoint: mean survival time, dose: 4.0 mg/kg/injection, schedule: Q03HX016 (ip), vehicle: saline) was 100 % of control and the T/C (endpoint: mean survival time, dose: 4.0 mg/kg/injection, schedule: Q03HX024 (ip), vehicle: saline) was 121 % of control. For the same compound, the T/C (endpoint: mean survival time, dose: 8.0 mg/kg/injection, schedule: Q01DX009 (ip), vehicle: saline) was 121 % of control, the T/C (endpoint: mean survival time, dose: 8.0 mg/kg/injection, schedule: Q01DX009 (sc), vehicle: saline) was 108 % of control and the T/C (endpoint: mean survival time, dose: 16.0 mg/kg/injection, schedule: Q01DX001 (ip), vehicle: saline) was 113 % of control. The T/C (endpoint: mean survival time, dose: 16.0 mg/kg/injection, schedule: Q01DX001 (sc), vehicle: saline) was 105 % of control, the T/C (endpoint: mean survival time, dose: 16.0 mg/kg/injection, schedule: Q04DX003 (ip), vehicle: saline) was 120 % of control and the T/C (endpoint: mean survival time, dose: 16.0 mg/kg/injection, schedule: Q08DX002 (ip), vehicle: saline) was 103 % of control. The T/C (endpoint: mean survival time, dose: 32.0 mg/kg/injection, schedule: Q01DX001 (sc), vehicle: saline) was 108 % of control, the T/C (endpoint: mean survival time, dose: 32.0 mg/kg/injection, schedule: Q01DX009 (ip), vehicle: saline) was 194 % of control and the T/C (endpoint: mean survival time, dose: 32.0 mg/kg/injection, schedule: Q08DX002 (ip), vehicle: saline) was 120 % of control. The T/C (endpoint: mean survival time, dose: 64.0 mg/kg/injection, schedule: Q01DX001 (ip), vehicle: saline) was 152 % of control, the T/C (endpoint: mean survival time, dose: 64.0 mg/kg/injection, schedule: Q01DX001 (sc), vehicle: saline) was 122 % of control and the T/C (endpoint: mean survival time, dose: 64.0 mg/kg/injection, schedule: Q01DX009 (ip), vehicle: saline) was 92 % of control. The T/C (endpoint: mean survival time, dose: 64.0 mg/kg/injection, schedule: Q01DX009 (sc), vehicle: saline) was 88 % of control, the T/C (endpoint: mean survival time, dose: 64.0 mg/kg/injection, schedule: Q04DX003 (ip), vehicle: saline) was 175 % of control and the T/C (endpoint: mean survival time, dose: 64.0 mg/kg/injection, schedule: Q08DX002 (ip), vehicle: saline) was 156 % of control. The T/C (endpoint: mean survival time, dose: 128.0 mg/kg/injection, schedule: Q01DX001 (ip), vehicle: saline) was 201 % of control, the T/C (endpoint: mean survival time, dose: 128.0 mg/kg/injection, schedule: Q04DX003 (ip), vehicle: saline) was 88 % of control and the T/C (endpoint: mean survival time, dose: 128.0 mg/kg/injection, schedule: Q08DX002 (ip), vehicle: saline) was 190 % of control.
NCC(=O)NC(Cc1ccccc1)C(=O)O (configuration not stated) (H-Gly-[ξF]-OH) was tested, and the T/C (endpoint: mean survival time, dose: 50.0 mg/kg/injection, schedule: Q01DX009 (ip), vehicle: saline with Tween-80) was 102 % of control, the T/C [1] was 100 % of control and the T/C [2] was 100 % of control.
In the case of CC1SCCS1, the T/C [3] is reported as 95 % of control, the T/C [4] is reported as 105 % of control and the T/C [5] is reported as 100 % of control.
In the case of CC(=O)C1CCC2C3CC=C4CC(SC(=N)N)CCC4(C)C3CCC12C (configuration not stated), the T/C (endpoint: mean survival time, dose: 75.0 mg/kg/injection, schedule: Q01DX001 (ip), vehicle: steriod suspending solution) is reported as 102 % of control, the T/C (endpoint: mean survival time, dose: 150.0 mg/kg/injection, schedule: Q01DX001 (ip), vehicle: steriod suspending solution) is reported as 104 % of control and the T/C (endpoint: mean survival time, dose: 300.0 mg/kg/injection, schedule: Q01DX001 (ip), vehicle: steriod suspending solution) is reported as 91 % of control.
In the case of CCCCCCCCCCCC(=O)Nc1ccc(C(C)C)cc1, the T/C [6] is reported as 97 % of control and the T/C [7] is reported as 96 % of control.
For CC(O)/C=C/c1ccccc1O (configuration not stated), the T/C [6] was 90 % of control, the T/C [7] was 96 % of control and the T/C [8] was 93 % of control.
With CCOC(=O)C1CC1C#N (configuration not stated) the T/C [6] was 102 % of control, the T/C [7] was 98 % of control and the T/C [8] was 97 % of control.
CN=C(N)N/N=C(\C)c1ccc2sc3ccc(/C(C)=N/NC(N)=NC)cc3c2c1 was tested, and the T/C [9] was 113 % of control and 124 % of control, the T/C [10] was 112 % of control and the T/C [11] was 117 % of control. The T/C [12] was 119 % of control and the T/C (endpoint: median survival time, dose: 400.0 mg/kg/injection, schedule: Q01DX009 (ip), vehicle: saline with Tween-80) was 119 % of control and 102 % of control.
In the case of OCC1OC(n2cnc3cc(Cl)c(Cl)cc32)C(O)C1O (configuration not stated), the T/C [9] is reported as 97 % of control and 103 % of control, the T/C [10] is reported as 106 % of control and the T/C [11] is reported as 120 % of control and 110 % of control and 112 % of control. The T/C [12] was 120 % of control.
With C1CC[N-]CC1.Oc1ccccc1C=NCCN=Cc1ccccc1O.[Co] the T/C (endpoint: mean survival time, dose: 1.56 mg/kg/injection, schedule: Q04DX002 (ip), vehicle: saline with Tween-80) was 109 % of control and the T/C (endpoint: mean survival time, dose: 3.13 mg/kg/injection, schedule: Q04DX002 (ip), vehicle: saline with Tween-80) was 98 % of control.
O=S1(=O)CC(Cl)C(Cl)C1 (configuration not stated) was tested, and the T/C (endpoint: mean survival time, dose: 50.0 mg/kg/injection, schedule: Q04DX003 (ip), vehicle: alcohol) was 105 % of control.
For COc1ccccc1NC(=O)N(CCCl)N=O, the T/C (endpoint: mean survival time, dose: 1.5 mg/kg/injection, schedule: Q01DX009 (ip), vehicle: carboxymethylcellulose (CMC)) was 115 % of control and the T/C (endpoint: mean survival time, dose: 3.5 mg/kg/injection, schedule: Q01DX009 (ip), vehicle: carboxymethylcellulose (CMC)) was 168 % of control.
COc1ccc(CCc2nc(CCCCO)[nH]c2C)cc1OC was tested, and the T/C [1] was 92 % of control.
For CC(=O)Oc1ccccc1N(C(C)=O)S(=O)(=O)c1ccc(C)cc1, the T/C (endpoint: mean survival time, dose: 50.0 mg/kg/injection, schedule: Q04DX003 (ip), vehicle: saline) was 98 % of control, the T/C [13] was 106 % of control and the T/C (endpoint: mean survival time, dose: 100.0 mg/kg/injection, schedule: Q04DX003 (ip), vehicle: saline) was 101 % of control. The T/C [14] was 108 % of control, the T/C (endpoint: mean survival time, dose: 200.0 mg/kg/injection, schedule: Q04DX003 (ip), vehicle: saline) was 101 % of control and the T/C [15] was 100 % of control.
In the case of O=NNc1cccnc1, the T/C (endpoint: median survival time, dose: 6.25 mg/kg/injection, schedule: Q01DX009 (ip), vehicle: water) is reported as 96 % of control, the T/C (endpoint: median survival time, dose: 12.5 mg/kg/injection, schedule: Q01DX009 (ip), vehicle: water) is reported as 99 % of control and the T/C (endpoint: median survival time, dose: 25.0 mg/kg/injection, schedule: Q01DX009 (ip), vehicle: water) is reported as 99 % of control.
N#C/C(=C/c1ccccc1Cl)C(N)=O was tested, and the T/C (endpoint: mean survival time, dose: 100.0 mg/kg/injection, schedule: Q01DX001 (ip), vehicle: saline sonified) was 103 % of control, the T/C (endpoint: mean survival time, dose: 200.0 mg/kg/injection, schedule: Q01DX001 (ip), vehicle: saline sonified) was 100 % of control and the T/C (endpoint: mean survival time, dose: 400.0 mg/kg/injection, schedule: Q01DX001 (ip), vehicle: saline sonified) was 104 % of control.
For O=C1OCCN1S(=O)(=O)c1ccc(Cl)cc1, the T/C [1] was 95 % of control, the T/C [6] was 104 % of control and the T/C [2] was 93 % of control. For the same compound, the T/C [7] was 102 % of control, the T/C (endpoint: mean survival time, dose: 400.0 mg/kg/injection, schedule: Q01DX009 (ip), vehicle: saline with Tween-80) was 95 % of control and the T/C [8] was 98 % of control.
For Cc1ccc(S(=O)(=O)N(CCCc2c(C)nc(N)[nH]c2=O)Cc2cccc([N+](=O)[O-])c2)cc1, the T/C [3] was 92 % of control, the T/C [4] was 96 % of control and the T/C [5] was 92 % of control.
In the case of CC(=O)OCC1OC(n2cnc3[nH]c(=S)[nH]c(=S)c32)C(OC(C)=O)C1OC(C)=O (configuration not stated), the T/C [13] is reported as 103 % of control, the T/C [14] is reported as 96 % of control and the T/C [15] is reported as 97 % of control.
Cn1c2c(c3ccccc31)C(=O)CC2(C)C was tested, and the T/C (endpoint: mean survival time, dose: 50.0 mg/kg/injection, schedule: Q04DX003 (ip), vehicle: saline with Tween-80) was 103 % of control, the T/C [3] was 93 % of control and the T/C [6] was 89 % of control. The T/C [4] was 98 % of control.
For O=[N+]([O-])c1ccc(-c2ccccc2)c([As](=O)(O)O)c1, the T/C (endpoint: mean survival time, dose: 6.25 mg/kg/injection, schedule: Q04DX002 (ip), vehicle: saline with Tween-80) was 124 % of control, the T/C (endpoint: mean survival time, dose: 12.5 mg/kg/injection, schedule: Q04DX002 (ip), vehicle: saline with Tween-80) was 116 % of control and the T/C (endpoint: mean survival time, dose: 25.0 mg/kg/injection, schedule: Q04DX002 (ip), vehicle: saline with Tween-80) was 104 % of control.
